Laboratory results published in patent US20220339416A1, “SILK FIBROIN-BASED MICRONEEDLES AND USES THEREOF” (VAXESS TECHNOLOGIES, INC., priority 2019, published 2022).

Columns and labels:
[1] = test system: B16-F10 mouse melanoma tumor; experiment: Daily vs single bolus intratumoral administration in B16-F10 mouse melanoma tumor model; type: in vivo; conditions: anti-PD1 mAb 100 ug i.p. Day 4 and 9
Description: Mouse melanoma cells (B16-F10) are to be injected into the flank (right side) of mice (C57Bl/6) and a tumor is to be allowed to form. The agent will be administered intratumorally or peritumorally (i.e., intradermally or subcutaneously) either as: • 1. a single bolus, • 2. a series of fractional injections where the total dose given over the time frame is equivalent to the single bolus. These injections may be given daily or every other day. • 3. a silk microneedle patch formulated with the one or more therapeutic agents.
Tumor growth will be measured two to three times weekly. Animals will be euthanized when humane endpoints have been reached. These endpoints include weight loss >15%, body condition score <1, tumor volume >1 cm^3, tumor length (defined as the longest dimension) >1.5 cm, or tumor ulceration/necrosis. These humane endpoints apply to all in vivo experiments using the melanoma model.
According to the methods outlined above, daily intratumoral administration was compared to single intratumoral bolus doses, with IL-2 or gemcitabine, using a B16-F10 mouse melanoma tumor model. For this study, two cycles of treatment were performed, including a bolus administration on Day 7 and on Day 21, and daily administration on Days 7-11 and Days 21-25. […] On Day 0, mice were inoculated by subcutaneous administration of B16-F10 cells. […]

[2] = test system: CT26 colon carcinoma; experiment: Daily vs single bolus intratumoral administration in murine CT26 colon carcinoma model; type: in vivo, mouse; conditions: daily intratumoral 95 μg days 7-11 compared to single bolus 475 μg day 7; anti-PD1 mAb 100 μg i.p. day 4 and 9
Description: Daily intratumoral administration compared to single intratumoral bolus doses was further investigated using gemcitabine in a murine CT26 colon carcinoma model (see FIG. 7A-7B). On day 0, mice were inoculated by subcutaneous administration of CT26 cells. On day 4 and day 9, mice were administered a dose of an anti-PD1 mAb (100 μg per dose) by intraperitoneal injection. Data was pooled from two experiments, with 10 mice per group.
CT26 mice in the ‘single bolus dose’ group received a single bolus dose of gemcitabine (475 μg) (intratumoral) at day 7, and four doses of saline (intratumoral) for the next four days (FIG. 7A). CT26 mice in the ‘daily dose’ group received daily doses of gemcitabine (95 μg) (intratumoral) over days 7-11 (5 total doses) (FIG. 7B). Each daily doses was a fractional dose equivalent to approximately ⅕ of the single bolus dose.

Nc1ccn([C@@H]2O[C@H](CO)[C@@H](O)C2(F)F)c(=O)n1 [gemcitabine]
survival (Kaplan-Meier curve) ([1]; daily intratumoral doses (Days 7-11 and 21-25) compared to single bolus doses (Day 7 and 21)): greater survival | tumor burden, as determined by tumor volume over time ([1]; daily intratumoral doses (Days 7-11 and 21-25, each 1/5 of bolus) compared to single bolus doses (Day 7 and 21)): lower tumor burden | overall survivability (Kaplan-Meier survival curve) [2]: greater than the bolus dose group | tumor burden (tumor volume over time) [2]: lower tumor burden
